The values below come from ChEMBL document CHEMBL4680362, “Androgen Receptor Protein Degradation in the Treatment of Castration-Resistant Prostate Cancer” (ACS Med Chem Lett, 2021).

Assay [1] concerns the target T1, von Hippel-Lindau disease tumor suppressor/Androgen receptor (Homo sapiens) (UniProt P10275+P40337). Nature of the assay: Protac activity at VHL/AR in human LNCaP cells assessed as degradation of AR at 0.1 uM measured after 6 hrs by Western blot analysis relative to control. It is filed as cell-based. In general terms: A western blot detects proteins with antibodies after separation by electrophoresis.

For assay [2], the target named is T1, von Hippel-Lindau disease tumor suppressor/Androgen receptor (Homo sapiens). Description: Protac activity at VHL/AR in human LNCaP cells assessed as degradation of AR at 0.01 uM measured after 6 hrs by Western blot analysis relative to control. The assay is classed as cell-based.

T1 sequence (P10275 whole entry, looked up): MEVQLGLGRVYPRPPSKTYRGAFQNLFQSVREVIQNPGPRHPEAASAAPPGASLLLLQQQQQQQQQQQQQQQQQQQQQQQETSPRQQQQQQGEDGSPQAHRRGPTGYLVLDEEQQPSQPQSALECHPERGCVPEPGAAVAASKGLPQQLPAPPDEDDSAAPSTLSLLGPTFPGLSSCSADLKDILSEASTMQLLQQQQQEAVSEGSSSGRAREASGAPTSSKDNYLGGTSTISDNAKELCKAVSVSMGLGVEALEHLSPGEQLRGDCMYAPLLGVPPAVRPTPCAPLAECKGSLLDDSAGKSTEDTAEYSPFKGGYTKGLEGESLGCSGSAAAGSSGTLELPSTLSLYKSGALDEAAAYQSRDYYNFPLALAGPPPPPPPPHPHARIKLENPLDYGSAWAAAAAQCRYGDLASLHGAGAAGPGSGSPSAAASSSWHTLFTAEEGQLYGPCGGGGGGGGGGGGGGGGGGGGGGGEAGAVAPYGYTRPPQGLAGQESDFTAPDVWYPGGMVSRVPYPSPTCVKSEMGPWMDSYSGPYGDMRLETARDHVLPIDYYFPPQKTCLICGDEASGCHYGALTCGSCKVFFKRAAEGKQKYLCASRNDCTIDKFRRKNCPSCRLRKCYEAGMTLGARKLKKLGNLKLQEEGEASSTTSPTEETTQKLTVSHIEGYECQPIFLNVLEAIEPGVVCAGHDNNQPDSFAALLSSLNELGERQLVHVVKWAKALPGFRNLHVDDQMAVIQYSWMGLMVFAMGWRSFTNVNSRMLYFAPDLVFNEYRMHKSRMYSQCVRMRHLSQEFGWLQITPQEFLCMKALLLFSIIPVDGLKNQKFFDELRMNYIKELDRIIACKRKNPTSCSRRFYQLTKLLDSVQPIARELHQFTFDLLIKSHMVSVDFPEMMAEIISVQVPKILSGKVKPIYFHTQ
T1 sequence (P40337 whole entry, looked up): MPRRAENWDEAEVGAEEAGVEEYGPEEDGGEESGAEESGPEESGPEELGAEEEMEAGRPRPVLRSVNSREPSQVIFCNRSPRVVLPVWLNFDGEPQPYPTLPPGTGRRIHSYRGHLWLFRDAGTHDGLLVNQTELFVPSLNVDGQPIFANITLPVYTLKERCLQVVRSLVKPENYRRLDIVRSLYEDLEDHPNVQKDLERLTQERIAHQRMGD

In the case of `Cc1cc([C@H](C(=O)N2C[C@H](O)C[C@H]2C(=O)N[C@@H](CC(=O)N2CCC(N3CCC(C#Cc4ccc(Cc5c(C)nn(-c6ccc(C#N)c(Cl)c6)c5C)cc4)CC3)CC2)c2ccc(-c3scnc3C)cc2)C(C)C)on1`, in assay [1], the Activity worked out at 65%.

Consider `Cc1cc([C@H](C(=O)N2C[C@H](O)C[C@H]2C(=O)N[C@@H](CC(=O)NN2CCC(N3CCC(C#Cc4ccc(N5C(=S)N(c6ccc(C#N)c(C(F)(F)F)c6)C(=O)C5(C)C)cc4)CC3)CC2)c2ccc(-c3scnc3C)cc2)C(C)C)on1`, for which the Activity came to 20% in assay [2] and 81% in assay [1]. Taken in the same sequence, the figures for `Cc1cc([C@H](C(=O)N2C[C@H](O)C[C@H]2C(=O)N[C@@H](CC(=O)N2CCC(N3CCC(C#Cc4ccc(C(=O)N[C@H]5C(C)(C)[C@H](Oc6ccc(C#N)c(Cl)c6)C5(C)C)cc4)CC3)CC2)c2ccc(-c3scnc3C)cc2)C(C)C)on1` were 76% and 98%. On to `Cc1ncsc1-c1ccc([C@H](CC(=O)N2CCC(N3CCC(C#Cc4ccc(C(=O)N[C@H]5C(C)(C)[C@H](Oc6ccc(C#N)c(Cl)c6)C5(C)C)cc4)CC3)CC2)NC(=O)[C@@H]2C[C@@H](O)CN2C(=O)[C@@H](NC(=O)C2(C#N)CC2)C(C)(C)C)cc1`, for which the Activity in assay [2] stood at 76%; in assay [1] it was 99%. Taken in the same sequence, the figures for `CC(=O)N[C@H](C(=O)N1C[C@H](O)C[C@H]1C(=O)N[C@@H](CC(=O)N1CCC(N2CCC(C#Cc3ccc(C(=O)N[C@H]4C(C)(C)[C@H](Oc5ccc(C#N)c(Cl)c5)C4(C)C)cc3)CC2)CC1)c1ccc(-c2scnc2C)cc1)C(C)(C)C` were 39% and 77%. Consider `CC1(C)[C@H](NC(=O)c2ccc(C#CC3CCN(C4CCN(c5cccc6c5C(=O)N(C5CCC(=O)NC5=O)C6=O)CC4)CC3)cc2)C(C)(C)[C@H]1Oc1ccc(C#N)c(Cl)c1` (some centres undefined), for which the Activity in assay [1] came to 2%. Consider `Cc1ncsc1-c1ccc([C@H](CC(=O)N2CCC(N3CCC(C#Cc4ccc(C(=O)N[C@H]5C(C)(C)[C@H](Oc6ccc(C#N)c(Cl)c6)C5(C)C)cc4)CC3)CC2)NC(=O)[C@@H]2C[C@@H](O)CN2C(=O)[C@@H](NC(=O)C2(F)CC2)C(C)(C)C)cc1`, for which the results for the Activity in assay [2] and in assay [1] were 89% and 99%, respectively.

For `Cc1cc([C@H](C(=O)N2C[C@H](O)C[C@H]2C(=O)N[C@@H](CC(=O)NN2CCC(N3CCC(C#Cc4ccc(N5C(=S)N(c6cnc(C#N)c(C(F)(F)F)c6)C(=O)C56CCC6)cc4)CC3)CC2)c2ccc(-c3scnc3C)cc2)C(C)C)on1`, the Activity in assay [2] is 38%; in assay [1], 80%.
